Reference: the Kinase Knowledgebase extract (Sharma et al. 2016)
pIC50: −log10 of the molar value.

Legend:
PIK3CD (Human) = PIK3CD (Human) (UniProt O00329); test: Cell-Based Assay; settings: raji
PIK3CB (Human) = PIK3CB (Human) (UniProt P42338); test: Enzyme Assay
PIK3CG (human) = PIK3CG (human) (UniProt P48736); test: Enzyme Assay
PIK3CG (human), sequence (P48736 whole entry, looked up): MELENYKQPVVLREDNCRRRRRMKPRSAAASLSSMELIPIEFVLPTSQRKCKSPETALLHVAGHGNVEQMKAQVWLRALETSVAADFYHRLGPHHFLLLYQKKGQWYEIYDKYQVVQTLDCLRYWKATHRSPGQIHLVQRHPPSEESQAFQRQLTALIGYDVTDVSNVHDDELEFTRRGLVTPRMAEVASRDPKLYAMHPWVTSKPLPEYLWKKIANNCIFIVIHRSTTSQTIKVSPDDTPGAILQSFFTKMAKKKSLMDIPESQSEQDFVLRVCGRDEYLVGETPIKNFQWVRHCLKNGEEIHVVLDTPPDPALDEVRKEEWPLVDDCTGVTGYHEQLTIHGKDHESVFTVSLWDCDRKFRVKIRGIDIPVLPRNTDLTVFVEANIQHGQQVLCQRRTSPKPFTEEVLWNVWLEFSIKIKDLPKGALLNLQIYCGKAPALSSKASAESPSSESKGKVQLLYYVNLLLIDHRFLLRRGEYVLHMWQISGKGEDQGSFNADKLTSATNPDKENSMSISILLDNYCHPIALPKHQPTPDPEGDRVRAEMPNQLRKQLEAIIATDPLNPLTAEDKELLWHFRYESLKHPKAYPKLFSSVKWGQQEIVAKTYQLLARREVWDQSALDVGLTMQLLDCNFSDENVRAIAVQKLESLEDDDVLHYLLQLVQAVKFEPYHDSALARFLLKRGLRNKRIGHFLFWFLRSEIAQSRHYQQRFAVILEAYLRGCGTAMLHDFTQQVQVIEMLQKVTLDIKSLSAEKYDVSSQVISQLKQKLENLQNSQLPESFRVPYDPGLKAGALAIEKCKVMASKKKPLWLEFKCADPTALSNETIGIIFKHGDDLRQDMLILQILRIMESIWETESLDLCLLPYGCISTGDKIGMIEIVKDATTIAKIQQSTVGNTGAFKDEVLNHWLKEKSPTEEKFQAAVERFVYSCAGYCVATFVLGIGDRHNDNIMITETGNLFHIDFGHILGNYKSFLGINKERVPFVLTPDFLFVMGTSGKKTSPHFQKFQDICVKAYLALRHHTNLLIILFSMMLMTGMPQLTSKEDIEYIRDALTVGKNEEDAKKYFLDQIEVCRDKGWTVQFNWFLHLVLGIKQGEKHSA

PIK3CB (Human), sequence (P42338 whole entry, looked up): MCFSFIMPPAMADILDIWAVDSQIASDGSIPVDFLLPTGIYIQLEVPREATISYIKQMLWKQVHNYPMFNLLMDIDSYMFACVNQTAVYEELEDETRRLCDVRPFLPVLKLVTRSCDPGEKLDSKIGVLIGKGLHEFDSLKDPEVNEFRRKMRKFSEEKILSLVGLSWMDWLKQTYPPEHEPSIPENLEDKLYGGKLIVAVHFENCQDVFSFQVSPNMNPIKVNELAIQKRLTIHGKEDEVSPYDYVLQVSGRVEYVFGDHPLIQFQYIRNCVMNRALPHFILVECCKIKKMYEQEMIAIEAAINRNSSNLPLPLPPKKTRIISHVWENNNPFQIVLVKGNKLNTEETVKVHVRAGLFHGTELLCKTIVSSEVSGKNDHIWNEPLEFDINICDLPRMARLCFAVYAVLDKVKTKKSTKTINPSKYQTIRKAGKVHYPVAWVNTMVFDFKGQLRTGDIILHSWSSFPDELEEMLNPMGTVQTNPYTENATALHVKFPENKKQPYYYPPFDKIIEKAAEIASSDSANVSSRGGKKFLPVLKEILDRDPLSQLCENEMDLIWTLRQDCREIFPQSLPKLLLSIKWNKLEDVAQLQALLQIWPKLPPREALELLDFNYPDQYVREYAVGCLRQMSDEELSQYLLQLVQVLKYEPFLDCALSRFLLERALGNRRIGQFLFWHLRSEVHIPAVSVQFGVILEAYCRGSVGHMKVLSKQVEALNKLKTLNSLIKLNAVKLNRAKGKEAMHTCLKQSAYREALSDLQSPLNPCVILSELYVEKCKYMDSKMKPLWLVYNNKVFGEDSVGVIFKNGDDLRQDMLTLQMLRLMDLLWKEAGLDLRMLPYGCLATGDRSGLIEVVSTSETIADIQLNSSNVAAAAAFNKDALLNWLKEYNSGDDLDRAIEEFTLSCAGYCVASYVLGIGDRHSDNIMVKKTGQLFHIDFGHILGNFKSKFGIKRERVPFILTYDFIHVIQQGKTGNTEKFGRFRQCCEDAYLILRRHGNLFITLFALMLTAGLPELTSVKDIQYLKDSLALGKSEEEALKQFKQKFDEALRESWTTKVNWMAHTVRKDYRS
PIK3CD (Human), sequence (O00329 whole entry, looked up): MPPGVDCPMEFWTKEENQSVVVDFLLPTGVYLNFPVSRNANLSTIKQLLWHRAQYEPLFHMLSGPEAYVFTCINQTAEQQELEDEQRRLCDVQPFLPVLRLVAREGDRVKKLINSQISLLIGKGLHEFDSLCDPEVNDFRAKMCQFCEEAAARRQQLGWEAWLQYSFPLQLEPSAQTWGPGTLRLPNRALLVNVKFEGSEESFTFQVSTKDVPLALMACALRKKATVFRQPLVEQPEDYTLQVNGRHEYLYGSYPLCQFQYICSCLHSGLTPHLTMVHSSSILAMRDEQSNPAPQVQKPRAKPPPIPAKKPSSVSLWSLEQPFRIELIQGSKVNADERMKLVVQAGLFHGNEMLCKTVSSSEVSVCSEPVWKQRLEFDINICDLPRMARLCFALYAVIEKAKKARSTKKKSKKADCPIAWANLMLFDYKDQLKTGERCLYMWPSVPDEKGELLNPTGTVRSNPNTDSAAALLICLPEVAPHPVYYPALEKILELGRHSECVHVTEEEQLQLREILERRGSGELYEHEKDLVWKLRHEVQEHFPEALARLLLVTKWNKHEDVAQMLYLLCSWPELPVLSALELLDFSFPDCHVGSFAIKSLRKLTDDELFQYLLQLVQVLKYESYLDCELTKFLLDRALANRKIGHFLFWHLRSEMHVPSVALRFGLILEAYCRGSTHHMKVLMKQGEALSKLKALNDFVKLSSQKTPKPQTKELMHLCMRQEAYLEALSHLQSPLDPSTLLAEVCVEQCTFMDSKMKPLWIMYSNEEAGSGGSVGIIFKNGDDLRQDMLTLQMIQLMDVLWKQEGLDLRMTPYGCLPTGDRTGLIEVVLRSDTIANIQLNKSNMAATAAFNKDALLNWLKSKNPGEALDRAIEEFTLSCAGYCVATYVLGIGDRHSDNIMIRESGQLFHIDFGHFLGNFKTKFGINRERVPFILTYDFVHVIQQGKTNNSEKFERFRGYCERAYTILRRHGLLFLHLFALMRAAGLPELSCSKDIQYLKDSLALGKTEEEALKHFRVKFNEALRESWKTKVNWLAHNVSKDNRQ

SMILES	pIC50 (PIK3CD (Human))	pIC50 (PIK3CB (Human))	pIC50 (PIK3CG (human))
C[C@H](NC(=O)c1c(N)nn2cccnc12)c1cc2cccc(Cl)c2c(=O)n1C1CCCCC1	> 7.00		
C[C@H](NC(=O)c1cncc2cccnc12)c1cc2cccc(C(F)(F)F)c2c(=O)n1-c1ccccc1	> 7.00		
C[C@H](NC(=O)c1c(N)nn2cccnc12)c1cc2cccc(-c3cncs3)c2c(=O)n1-c1ccccc1	> 7.00	≤ 5.00	6.00 to 7.00
C[C@H](NC(=O)c1c(N)nn2cccnc12)c1cc2cccc(C#CCCNC(=O)[C@@H]3CCC(=O)O3)c2c(=O)n1-c1ccccc1	> 7.00	≤ 5.00	6.00 to 7.00
C[C@H](NC(=O)c1c(N)nn2cccnc12)c1cc2cccc(-c3cccs3)c2c(=O)n1-c1ccccc1	6.00 to 7.00		6.00 to 7.00
CNS(=O)(=O)c1cccc(-c2cnc(N)c(C(=O)N[C@@H](C)c3cc4cccc(Cl)c4c(=O)n3-c3ccccc3)n2)c1	> 7.00	6.00 to 7.00	6.00 to 7.00
CC(=O)Nc1ccc(-c2cccc3cc([C@H](C)NC(=O)c4c(N)nn5cccnc45)n(-c4ccccc4)c(=O)c23)cc1	> 7.00	≤ 5.00	6.00 to 7.00
C[C@H](NC(=O)c1cnn2cccnc12)c1cc2cccc(C#CCNC(=O)[C@@H]3CCC(=O)N3)c2c(=O)n1-c1ccccc1	6.00 to 7.00		6.00 to 7.00
C[C@H](NC(=O)c1nc(-c2cccc(NS(=O)(=O)C3CC3)c2)cnc1N)c1cc2cccc(Cl)c2c(=O)n1-c1ccccc1	> 7.00	6.00 to 7.00	> 7.00
C[C@H](NC(=O)c1c(N)nn2cccnc12)c1cc2cccc(-c3ccn[nH]3)c2c(=O)n1-c1ccccc1	6.00 to 7.00	≤ 5.00	6.00 to 7.00
C[C@H](NC(=O)c1c(N)nn2cccnc12)c1cc2cccc(C#CCNC(=O)[C@H]3CCC(=O)O3)c2c(=O)n1-c1ccccc1	> 7.00		> 7.00
COc1cc(-c2cccc3cc([C@H](C)NC(=O)c4c(N)nn5cccnc45)n(-c4ccccc4)c(=O)c23)ccn1	> 7.00		6.00 to 7.00
Cc1cc(C)n2nc(N)c(C(=O)N[C@@H](C)c3cc4cccc(Cl)c4c(=O)n3-c3ccccc3)c2n1	> 7.00	6.00 to 7.00	6.00 to 7.00
C=CC(=O)NCCC#Cc1cccc2cc([C@H](C)NC(=O)c3c(N)nn4cccnc34)n(-c3ccccc3)c(=O)c12	> 7.00		6.00 to 7.00
CC(=O)Nc1cccc(-c2cccc3cc([C@H](C)NC(=O)c4c(N)nn5cccnc45)n(-c4ccccc4)c(=O)c23)c1	> 7.00	≤ 5.00	6.00 to 7.00
CC#Cc1cccc2cc([C@H](C)NC(=O)c3c(N)nn4cccnc34)n(-c3ccccc3)c(=O)c12	> 7.00		> 7.00
CC(=O)Nc1ncc(-c2cccc3cc([C@H](C)NC(=O)c4c(N)nn5cccnc45)n(-c4ccccc4)c(=O)c23)s1		≤ 5.00	6.00 to 7.00
CC(C)n1c([C@H](C)NC(=O)c2c(N)nn3cccnc23)cc2cccc(Cl)c2c1=O	> 7.00	6.00 to 7.00	6.00 to 7.00
C[C@H](NC(=O)c1c(N)nn2cccnc12)c1cc2cccc(-c3ccncc3)c2c(=O)n1-c1ccccc1	> 7.00	≤ 5.00	6.00 to 7.00
COc1cc(-c2cccc3cc([C@H](C)NC(=O)c4c(N)nn5cccnc45)n(C)c(=O)c23)ccn1	> 7.00	≤ 5.00	
C[C@H](NC(=O)c1c(N)nn2cccnc12)c1cc2cccc(Cl)c2c(=O)n1-c1ccc(F)c(F)c1	6.00 to 7.00		> 7.00
C[C@H](NC(=O)c1nc(-c2cccc(S(N)(=O)=O)c2)cnc1N)c1cc2cccc(Cl)c2c(=O)n1-c1ccccc1	6.00 to 7.00	6.00 to 7.00	6.00 to 7.00
COc1cc(-c2cccc3cc([C@H](C)NC(=O)c4c(N)nn5ccc(C)nc45)n(-c4ccccc4)c(=O)c23)ccn1	> 7.00	≤ 5.00	6.00 to 7.00

SMILES	pIC50 (PIK3CD (Human))	pIC50 (PIK3CB (Human))	pIC50 (PIK3CG (human))
C[C@H](NC(=O)c1c(N)nn2cccnc12)c1cc2cccc(C#CCN)c2c(=O)n1-c1ccccc1	6.00 to 7.00		6.00 to 7.00
COc1cc(-c2cccc3nc([C@H](C)NC(=O)c4c(N)nn5cccnc45)n(C4CC4)c(=O)c23)ccn1	6.00 to 7.00		
C[C@H](NC(=O)c1cnn2cccnc12)c1cc2cccc(Cl)c2c(=O)n1-c1ccc(F)cc1	6.00 to 7.00		6.00 to 7.00
C[C@H](NC(=O)c1c(N)nn2cccnc12)c1cc2cccc(C#CCNC(=O)C3CCCCC3)c2c(=O)n1-c1ccccc1	> 7.00		6.00 to 7.00
C[C@H](NC(=O)c1nc(-c2cccc(NS(C)(=O)=O)c2)cnc1N)c1cc2cccc(Cl)c2c(=O)n1-c1ccccc1	> 7.00	6.00 to 7.00	> 7.00
C[C@H](NC(=O)c1cnc2cccnn12)c1cc2cccc(Cl)c2c(=O)n1-c1ccc(F)cc1	> 7.00		
CC(C)NS(=O)(=O)c1cccc(-c2cnc(N)c(C(=O)N[C@@H](C)c3cc4cccc(Cl)c4c(=O)n3-c3ccccc3)n2)c1	> 7.00	6.00 to 7.00	6.00 to 7.00
C[C@H](NC(=O)c1c(N)nn2cccnc12)c1cc2cccc(Cl)c2c(=O)n1-c1ccc(F)cc1	> 7.00	6.00 to 7.00	> 7.00
COc1ccc(-c2cnc(N)c(C(=O)N[C@@H](C)c3cc4cccc(Cl)c4c(=O)n3-c3ccccc3)n2)cc1OC	6.00 to 7.00		6.00 to 7.00
C[C@H](NC(=O)c1nc(-c2cccc(S(C)(=O)=O)c2)cnc1N)c1cc2cccc(Cl)c2c(=O)n1-c1ccccc1	6.00 to 7.00		6.00 to 7.00
C[C@H](NC(=O)c1nc(-c2cccc(NS(C)(=O)=O)c2)cnc1N)c1cc2cccc(Cl)c2c(=O)n1C1CC1	> 7.00	6.00 to 7.00	> 7.00
C[C@H](NC(=O)c1nc(-c2cccc(S(=O)(=O)NC(C)(C)C)c2)cnc1N)c1cc2cccc(Cl)c2c(=O)n1-c1ccccc1	> 7.00		6.00 to 7.00
C[C@H](NC(=O)c1cncc2cccnc12)c1cc2cccc(Cl)c2c(=O)n1-c1ccc(F)cc1	> 7.00		
COc1ncc(-c2cccc3cc([C@H](C)NC(=O)c4c(N)nn5cccnc45)n(-c4ccccc4)c(=O)c23)cn1	> 7.00		6.00 to 7.00
C[C@H](NC(=O)c1c(N)nn2cccnc12)c1cc2cccc(C#CCCN)c2c(=O)n1-c1ccccc1	6.00 to 7.00		6.00 to 7.00
COc1cc(-c2cccc3cc([C@H](C)NC(=O)c4c(N)nn5cccnc45)n(-c4cccc(F)c4)c(=O)c23)ccn1	6.00 to 7.00	≤ 5.00	6.00 to 7.00
CC(C)Oc1ccc(-c2cnc(N)c(C(=O)N[C@@H](C)c3cc4cccc(Cl)c4c(=O)n3-c3ccccc3)n2)cc1F		≤ 5.00	6.00 to 7.00
Cc1cccc2cc([C@H](C)NC(=O)c3c(N)nn4cccnc34)n(-c3ccccc3)c(=O)c12	> 7.00		6.00 to 7.00
C[C@H](NC(=O)c1nc(-c2cn[nH]c2)cnc1N)c1cc2cccc(Cl)c2c(=O)n1-c1ccccc1	> 7.00		6.00 to 7.00
C[C@H](NC(=O)c1c(N)nn2cccnc12)c1cc2cccc(C#CCNS(C)(=O)=O)c2c(=O)n1-c1ccccc1	6.00 to 7.00		6.00 to 7.00
CC(=O)NCC#Cc1cccc2cc([C@H](C)NC(=O)c3c(N)nn4cccnc34)n(-c3ccccc3)c(=O)c12	> 7.00		> 7.00
C[C@H](NC(=O)c1c(N)nn2cccnc12)c1c(Br)c2cccc(F)c2c(=O)n1-c1ccccc1			6.00 to 7.00
